According to paper PMC5605198, “MELK is not necessary for the proliferation of basal-like breast cancer cells” (eLife, 2017):

Columns and labels:
[1] = biological target: T1, MELK (Homo sapiens, UniProt P62942+Q14680); test: Quantitative multiplexed proteomics (TMT LC-MS3); assay type: cell-based; details: 250 nM, 60 min, MELK−/− MDA-MB-468-FKBP12^F36V-MELK cells
T1 construct: expressed in transfected cells; host or cells: MDA-MB-468 (lentiviral transduction, endogenous MELK knocked out)
Experimental: (§1) MELK−/− MDA-MB-468-FKBP12^F36V-MELK cells were treated in duplicates with DMSO for 30 minutes or 60 minutes, or in triplicates with dTAG-7 (250 nM) for 30 minutes or 60 minutes. Cells were washed with ice-cold PBS once, collected by scraping and centrifugation, and lysed in 1 mL of lysis buffer (8 M urea, 1% SDS, 50 mM Tris pH8.5 supplemented with protease and phosphatase inhibitors). A micro-BCA assay (Pierce) was used to determine the protein concentration of each sample. A total of 1200 µg of proteins from each sample was depleted of abundant proteins using two Pierce Top 12 protein depletion spin columns. Eluted proteins were combined, and protein concentration was determined by micro-BCA. […] Peptide quantification was performed using the micro-BCA assay (Pierce). […]
(§2) 12 of the 24 peptide fractions from the basic reverse phase fractionation (every other fraction) were analyzed with an LC-MS3 data collection strategy ([McAlister et al., 2014]) on an Orbitrap Fusion mass spectrometer (Thermo Fisher Scientific) equipped with a Proxeon Easy nLC 1000 for online sample handling and peptide separations. […]
(§3) A suite of in-house software tools were used to for. RAW file processing and controlling peptide and protein level false discovery rates, assembling proteins from peptides, and protein quantification from peptides as previously described. […]

[2] = system: MKL1; test: Quantitative multiplexed proteomics (TMT LC-MS3); assay type: cell-based, human; details: 250 nM, 60 min, MELK−/− MDA-MB-468-FKBP12^F36V-MELK cells
Experimental: as §1, with “micro-BCA. Proteins were precipitated on ice for 1 hour with 13% trichloroacetic acid (TCA), washed twice with acetone, and pellets were allowed to air dry. Proteins were resuspended in 6 M urea, 50 mM Tris pH 8.5, reduced with 5 mM dithiothreitol (DTT) at room temperature for 1 hour, and alkylated with 15 mM iodoacetamide in the dark at room temperature for 1 hour. Alkylation was quenched with DTT. Urea concentration was reduced to 4 M and proteins were digested with LysC (1:50; enzyme:protein) for 6 hours at 25°C. The LysC digestion was diluted to 1 M urea, 50 mM Tris pH 8.5 and then digested with trypsin (1:100; enzyme:protein) overnight at 37°C.” for “micro-BCA.”
as §2, §3

[3] = system: EEA1; test: Quantitative multiplexed proteomics (TMT LC-MS3); assay type: cell-based, human; details: 250 nM, 60 min, MELK−/− MDA-MB-468-FKBP12^F36V-MELK cells
Experimental: as §1, with “micro-BCA. Proteins were precipitated on ice for 1 hour with 13% trichloroacetic acid (TCA), washed twice with acetone, and pellets were allowed to air dry. Proteins were resuspended in 6 M urea, 50 mM Tris pH 8.5, reduced with 5 mM dithiothreitol (DTT) at room temperature for 1 hour, and alkylated with 15 mM iodoacetamide in the dark at room temperature for 1 hour. Alkylation was quenched with DTT. Urea concentration was reduced to 4 M and proteins were digested with LysC (1:50; enzyme:protein) for 6 hours at 25°C. The LysC digestion was diluted to 1 M urea, 50 mM Tris pH 8.5 and then digested with trypsin (1:100; enzyme:protein) overnight at 37°C.” for “micro-BCA.”
as §2, §3

[4] = system: HNRNPR; test: Quantitative multiplexed proteomics (TMT LC-MS3); assay type: cell-based, human; details: 250 nM, 60 min, MELK−/− MDA-MB-468-FKBP12^F36V-MELK cells
Experimental: as §1, with “micro-BCA. Proteins were precipitated on ice for 1 hour with 13% trichloroacetic acid (TCA), washed twice with acetone, and pellets were allowed to air dry. Proteins were resuspended in 6 M urea, 50 mM Tris pH 8.5, reduced with 5 mM dithiothreitol (DTT) at room temperature for 1 hour, and alkylated with 15 mM iodoacetamide in the dark at room temperature for 1 hour. Alkylation was quenched with DTT. Urea concentration was reduced to 4 M and proteins were digested with LysC (1:50; enzyme:protein) for 6 hours at 25°C. The LysC digestion was diluted to 1 M urea, 50 mM Tris pH 8.5 and then digested with trypsin (1:100; enzyme:protein) overnight at 37°C.” for “micro-BCA.”
as §2, §3

[5] = system: FKBP12^F36V-MELK(sg3R); test: dTAG-induced degradation, immunoblot; assay type: cell-based; details: MELK−/− MDA-MB-468-FKBP12^F36V-MELK(sg3R) cells
Experimental: Four dTAG molecules (7, 13, 36 and 47) that vary in linker length and chemical structure were tested for their efficiency at depleting FKBP12^F36V-MELK(sg3R) (Figure 4A, Figure 4—figure supplement 3).
Figure 4. […] (A) Chemical structure of heterobifunctional dTAG molecule dTAG-47. See also Figure 4—figure supplement 3 for the chemical structures of dTAG-7, dTAG-13 and dTAG-36. (B) Immunoblots for MELK and GAPDH after treatment of dTAG-7, 13, 36, and 47 at indicated concentrations in MELK−/− MDA-MB-468-FKBP12^F36V-MELK(sg3R) cells for 4 hours. See Figure 4—figure supplement 1 for details of the generation of MELK−/− MDA-MB-468-FKBP12^F36V-MELK(sg3R) clones. (C) Same as in 4B, but with treatment at 500 nM and extended treatment times for 14, 24, 48, and 72 hours. (D) Changes in abundance of 7270 proteins (peptide count ≥2) comparing MELK−/− MDA-MB-468-FKBP12^F36V-MELK cells treated with dTAG-7 (250 nM) or DMSO for 1 hour, versus p-value (dTAG-7: triplicate, DMSO: duplicate, limma moderated t-test). See also Figure 4—source datas 1 and 2 for the original and the processed data. (E) Crystal violet staining image showing parental MDA-MB-468 cells and MELK−/− MDA-MB-468-FKBP12^F36V-MELK(sg3R) cells after treatment with DMSO or 500 nM of dTAG-47 for 9 days. Immunoblots showing MELK and GAPDH from a duplicate plate on Day 9 confirmed sustained depletion of FKBP12^F36V-MELK(sg3R). These are representative data from one of two independent experiments. Figure 4—source data 1. Raw integrated ion intensities from quantitative multiplexed proteomics. Figure 4—source data 2. Processed Data and Statistical Analysis by limma (topTable). Figure 4—figure supplement 1. Single clones selected from MDA-MB-468-FKBP12^F36V-MELK(sg3R) cells subject to CRISPR/Cas9-mediated knockout of endogenous MELK. Immunoblots for MELK and GAPDH in single cell clones selected from MDA-MB-468-FKBP12^F36V-MELK(sg3R) transfected with Cas9/sgMELK-3 to knockout endogenous MELK. Clone 1D4 is clone 1 and clone 1A3 is clone 2 in Figure 4. Clone 1D4 was confirmed with heterozygous −1 and +1 indels; clone 1A3 was confirmed with homozygous −1 deletions. [drawing 5] Figure 4—figure supplement 2. […] (A) Immunoblots for MELK, cyclin B1 and GAPDH in asynchronous versus M-phase arrested MDA-MB-468 cells and MDA-MB-468-FKBP12^F36V-MELK(sg3R) cells (clone 1). […] Chemical structures of dTAG molecules. FKBP12^F36V-binding ligands conjugated by variable linkers to thalidomide or pomalidomide, including (A) dTAG-7, (B) dTAG-13 and (C) dTAG-36 are capable of inducing degradation of FKBP12^F36V-tagged proteins of interest. [drawing 7]

T1 sequence (P62942+Q14680 fused P62942:F37V): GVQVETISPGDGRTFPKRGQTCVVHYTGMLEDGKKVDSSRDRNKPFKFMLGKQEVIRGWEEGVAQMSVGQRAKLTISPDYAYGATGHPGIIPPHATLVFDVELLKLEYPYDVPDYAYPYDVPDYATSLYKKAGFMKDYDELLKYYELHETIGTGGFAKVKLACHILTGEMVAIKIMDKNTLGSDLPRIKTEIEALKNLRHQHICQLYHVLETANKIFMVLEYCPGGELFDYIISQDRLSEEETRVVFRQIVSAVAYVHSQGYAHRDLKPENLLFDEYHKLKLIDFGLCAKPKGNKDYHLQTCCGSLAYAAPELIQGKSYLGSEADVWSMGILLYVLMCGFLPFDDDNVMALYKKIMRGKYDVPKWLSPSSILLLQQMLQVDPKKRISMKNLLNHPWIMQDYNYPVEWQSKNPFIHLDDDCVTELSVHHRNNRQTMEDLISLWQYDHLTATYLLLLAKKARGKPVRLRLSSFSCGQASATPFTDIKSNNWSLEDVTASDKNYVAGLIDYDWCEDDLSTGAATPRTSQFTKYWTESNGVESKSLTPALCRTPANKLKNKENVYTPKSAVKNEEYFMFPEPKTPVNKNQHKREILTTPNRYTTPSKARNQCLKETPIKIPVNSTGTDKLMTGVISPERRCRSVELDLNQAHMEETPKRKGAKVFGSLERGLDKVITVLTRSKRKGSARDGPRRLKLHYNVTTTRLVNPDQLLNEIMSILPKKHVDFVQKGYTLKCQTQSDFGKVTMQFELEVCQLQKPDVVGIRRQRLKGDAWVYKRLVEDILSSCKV
T1 sequence (Q96SW2 whole entry partner): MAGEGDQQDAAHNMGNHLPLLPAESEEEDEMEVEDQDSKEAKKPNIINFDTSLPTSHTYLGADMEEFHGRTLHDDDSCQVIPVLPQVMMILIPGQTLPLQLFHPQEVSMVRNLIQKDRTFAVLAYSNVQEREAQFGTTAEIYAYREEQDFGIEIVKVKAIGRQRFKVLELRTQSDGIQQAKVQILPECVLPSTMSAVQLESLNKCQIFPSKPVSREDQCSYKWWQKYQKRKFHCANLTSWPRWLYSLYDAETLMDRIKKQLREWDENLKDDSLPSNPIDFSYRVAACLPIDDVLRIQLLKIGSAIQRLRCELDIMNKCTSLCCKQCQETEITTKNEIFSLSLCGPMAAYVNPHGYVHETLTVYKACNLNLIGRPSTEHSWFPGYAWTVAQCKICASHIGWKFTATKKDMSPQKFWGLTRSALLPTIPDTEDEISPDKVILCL
T1 sequence (Q16531 2-1140 partner limits assumed): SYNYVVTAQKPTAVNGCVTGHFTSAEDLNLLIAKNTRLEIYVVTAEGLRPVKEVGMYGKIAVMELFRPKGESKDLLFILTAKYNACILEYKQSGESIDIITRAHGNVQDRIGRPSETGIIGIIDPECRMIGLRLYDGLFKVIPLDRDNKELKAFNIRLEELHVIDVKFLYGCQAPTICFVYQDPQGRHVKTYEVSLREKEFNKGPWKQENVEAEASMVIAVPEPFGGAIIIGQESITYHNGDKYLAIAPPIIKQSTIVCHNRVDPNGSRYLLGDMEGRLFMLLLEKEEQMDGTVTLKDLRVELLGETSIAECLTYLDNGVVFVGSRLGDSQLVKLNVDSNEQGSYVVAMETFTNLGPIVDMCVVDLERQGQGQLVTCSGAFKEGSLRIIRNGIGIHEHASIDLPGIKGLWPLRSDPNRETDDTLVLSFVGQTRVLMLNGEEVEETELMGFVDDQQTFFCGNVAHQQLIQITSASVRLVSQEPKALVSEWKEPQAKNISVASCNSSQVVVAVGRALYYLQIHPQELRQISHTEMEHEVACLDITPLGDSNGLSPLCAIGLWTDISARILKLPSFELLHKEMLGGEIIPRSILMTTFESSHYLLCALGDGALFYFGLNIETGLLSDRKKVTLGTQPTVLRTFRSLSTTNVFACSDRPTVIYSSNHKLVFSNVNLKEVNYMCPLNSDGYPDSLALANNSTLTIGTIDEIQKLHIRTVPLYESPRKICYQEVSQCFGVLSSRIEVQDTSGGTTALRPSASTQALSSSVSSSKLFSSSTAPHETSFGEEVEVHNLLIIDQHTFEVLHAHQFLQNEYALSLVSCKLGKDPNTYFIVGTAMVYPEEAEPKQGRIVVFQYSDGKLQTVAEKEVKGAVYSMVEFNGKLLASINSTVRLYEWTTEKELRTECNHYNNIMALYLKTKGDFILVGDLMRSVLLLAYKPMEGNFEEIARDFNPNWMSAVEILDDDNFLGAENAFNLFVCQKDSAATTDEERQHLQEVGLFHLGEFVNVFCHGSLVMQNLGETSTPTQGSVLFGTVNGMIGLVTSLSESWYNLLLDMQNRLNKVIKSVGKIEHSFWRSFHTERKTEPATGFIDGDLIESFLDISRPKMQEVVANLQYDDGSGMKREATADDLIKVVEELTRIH

SMILES: CCC(C(=O)N1CCCCC1C(=O)OC(CCc1ccc(OC)c(OC)c1)c1ccccc1OCC(=O)NCCCOCCOCCOCCCNC(=O)COc1cccc2c1C(=O)N(C1CCC(=O)NC1=O)C2=O)c1cc(OC)c(OC)c(OC)c1 (centres unmarked) [dTAG-7]
- logFC (log2 fold change of dTAG-7 to DMSO) MELK [1]: -0.8583
- logFC (log2 fold change of dTAG-7 to DMSO) MKL1 [2]: -0.2984
- logFC (log2 fold change of dTAG-7 to DMSO) EEA1 [3]: -0.08592
- logFC (log2 fold change of dTAG-7 to DMSO) HNRNPR [4]: 0.28
- time to efficient depletion of FKBP12^F36V-MELK(sg3R) [5]: ≤ 4 h
